Measurements: patent US20230293517A1, “ANTAGONIST COMPOUNDS” (AdoRx Therapeutics Limited, priority 2020, published 2023)
Read-outs that look alike come from different tables or passages of the source.

Columns and labels:
[1] = system: human PBMCs; experiment: CD3/CD28 stimulated IL-2 release NECA reversal assay in human PBMCs; assay type: cell-based; conditions: PBMC, 1 uM NECA, 24 hours, IL-2 in culture supernatant
Protocol: Biological Example—CD3/CD28 Stimulated IL-2 Release NECA Reversal Assay in Human PBMCs
Blood is drawn from healthy volunteers using sodium citrate as the anticoagulant (0.3% final concentration). After centrifugation of the blood over Histopaque-1077, PBMCs are collected from the Histopaque/plasma interface and washed twice in PBS (300 g for 10 mins at room temp). Cells are plated at 50,000 cells/well in 150 μl RPMI/10% FCS in 96-well cell culture plates that have been precoated with 1 ug/ml CD3 antibody. 50 μl diluted compound mix is added to the cells, to obtain final concentrations of 1 ug/ml CD28 antibody, 1 uM NECA and 0.003-10 μM adenosine receptor antagonist. Assay plates are incubated for 24 hours at 37° C. in a humidified incubator. Culture supernatant is tested for IL-2 levels using the human IL-2 Tissue Culture Kit (Meso Scale Discovery). Data for dose-response curves is calculated as % inhibition with 100% inhibition defined from no agonist control wells (+CD3/28-NECA)

[2] = system: CD8+T cells in human whole blood; experiment: Measurement of pCREB in CD8+T cells in human whole blood; assay type: cell-based; conditions: 3 μM NECA, rolipram
Protocol: Biological Example—Measurement of pCREB in CD8+T Cells in Human Whole Blood
Heparinised human whole blood was pre-incubated at 37° C. with serial dilutions of A2a antagonists for 20 min. and the phosphodiesterase inhibitor rolipram to amplify the pCREB response. The adenosine receptor agonist NECA is then added at a final concentration of 3 μM and following a 60 min incubation the blood is fixed and red blood cells lysed. White blood cells are isolated, permeabilized and stained with directly conjugated fluorescent antibodies to phospho-CREB (Alexa Fluor 488) and CD8 (Alexa Fluor 647) and the level of phospho-CREB in CD8+T cells is measured by FACS using a BD Accuri C6 Flow Cytometer.

[3] = biological target: human Adenosine A2a receptor (Homo sapiens (Human), UniProt P29274); experiment: Adenosine receptor TR-FRET binding assay (A2a); conditions: inhibition of binding of 100 nM CA200645, CHO cell membranes
Chain of human Adenosine A2a receptor (P29274 whole entry): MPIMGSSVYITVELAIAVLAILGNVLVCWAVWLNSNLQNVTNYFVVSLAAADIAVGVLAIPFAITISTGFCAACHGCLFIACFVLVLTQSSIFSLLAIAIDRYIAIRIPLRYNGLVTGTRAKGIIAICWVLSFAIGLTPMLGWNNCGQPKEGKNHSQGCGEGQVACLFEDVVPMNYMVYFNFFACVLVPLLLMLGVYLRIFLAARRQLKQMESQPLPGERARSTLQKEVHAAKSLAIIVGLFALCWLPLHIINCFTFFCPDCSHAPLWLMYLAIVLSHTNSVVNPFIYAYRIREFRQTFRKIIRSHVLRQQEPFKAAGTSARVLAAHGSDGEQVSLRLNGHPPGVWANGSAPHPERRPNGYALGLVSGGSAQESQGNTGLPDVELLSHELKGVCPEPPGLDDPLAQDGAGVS
Summary of the method: (§1)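 CHO membranes, Tb-labelled hA1/hA2a/hA2b/hA3; tracer CA200645 at 100 nM (A1, A2a, A3) or 30 nM (A2b); buffer with saponin, 1% DMSO, pluronic; 2 h RT. NSB with 10 μM XAC. Read TR-FRET (ex 337, em 620/665 nm); IC50 → Ki via Cheng–Prusoff.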

[4] = biological target: human Adenosine A3 receptor (Homo sapiens (Human), UniProt P0DMS8); experiment: Adenosine receptor TR-FRET binding assay (A3); conditions: inhibition of binding of 100 nM CA200645, CHO cell membranes
Chain of human Adenosine A3 receptor (P0DMS8 whole entry): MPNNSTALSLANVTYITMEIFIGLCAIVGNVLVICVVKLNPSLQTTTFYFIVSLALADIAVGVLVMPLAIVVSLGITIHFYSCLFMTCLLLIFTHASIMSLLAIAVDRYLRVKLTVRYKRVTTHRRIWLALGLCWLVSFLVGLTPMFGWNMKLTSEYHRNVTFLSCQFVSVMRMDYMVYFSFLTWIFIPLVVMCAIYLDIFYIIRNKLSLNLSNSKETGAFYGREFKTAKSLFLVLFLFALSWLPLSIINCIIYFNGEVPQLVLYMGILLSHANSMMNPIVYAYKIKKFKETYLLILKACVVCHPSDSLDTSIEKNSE
Summary of the method: as §1

[5] = biological target: human Adenosine A2b receptor (Homo sapiens (Human), UniProt P29275); experiment: Adenosine receptor TR-FRET binding assay (A2b)
Chain of human Adenosine A2b receptor (P29275 whole entry): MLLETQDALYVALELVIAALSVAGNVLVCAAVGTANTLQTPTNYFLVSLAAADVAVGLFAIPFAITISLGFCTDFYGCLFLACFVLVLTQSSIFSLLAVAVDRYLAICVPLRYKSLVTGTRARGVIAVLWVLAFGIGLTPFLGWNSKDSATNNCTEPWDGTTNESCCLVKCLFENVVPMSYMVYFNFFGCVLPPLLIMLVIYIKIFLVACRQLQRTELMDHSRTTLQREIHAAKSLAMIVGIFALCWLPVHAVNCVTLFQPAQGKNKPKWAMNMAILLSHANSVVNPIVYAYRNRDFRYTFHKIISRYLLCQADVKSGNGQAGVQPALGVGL
Summary of the method: as §1

[6] = biological target: human Adenosine A1 receptor (Homo sapiens (Human), UniProt P30542); experiment: Adenosine receptor TR-FRET binding assay (A1); conditions: inhibition of binding of 100 nM CA200645, CHO cell membranes
Chain of human Adenosine A1 receptor (P30542 whole entry): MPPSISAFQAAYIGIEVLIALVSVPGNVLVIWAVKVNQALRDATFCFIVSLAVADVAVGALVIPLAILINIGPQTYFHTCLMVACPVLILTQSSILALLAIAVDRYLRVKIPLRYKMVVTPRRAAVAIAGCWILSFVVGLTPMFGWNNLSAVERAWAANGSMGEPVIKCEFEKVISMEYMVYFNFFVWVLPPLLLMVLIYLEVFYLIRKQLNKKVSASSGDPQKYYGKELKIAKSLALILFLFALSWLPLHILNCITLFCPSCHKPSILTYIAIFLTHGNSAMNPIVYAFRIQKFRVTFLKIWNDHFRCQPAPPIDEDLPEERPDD
Summary of the method: as §1

[7] = TR-FRET, inhibition of binding of 30 nM CA200645, CHO cell membranes

| SMILES | IC50 [2] | Ki [3] | Ki [4] | Ki [5, 7] | Ki [6] | Ki [5] | IC50 [1] |
| --- | --- | --- | --- | --- | --- | --- | --- |
| Cc1cc(-c2sc(NC(=O)N3CCN(CCO)CC3)nc2-c2cccc(C#N)c2)cc(C)n1 [Example 4.3, N-[4-(3-Cyanophenyl)-5-(2,6-dimethyl-4-pyridyl)thiazol-2-yl]-4-(2-hydroxyethyl)piperazine-1-carboxamide] | 170 nM | 0.7 nM | 603 nM | 3.8 nM | 187 nM | – | 18.2 nM |
| Cc1cc(-c2sc(NC(=O)N3CC[C@H](O)C3)nc2-c2cccc(C#N)c2)cc(C)n1 [Example 4.5, (3S)-N-[4-(3-Cyanophenyl)-5-(2,6-dimethyl-4-pyridyl)thiazol-2-yl]-3-hydroxy-pyrrolidine-1-carboxamide] | 160 nM | 1.54 nM | 94 nM | 1.4 nM | 16 nM | – | 8.5 nM |
| Cc1cc(-c2sc(NC(=O)N3CCC(F)(C#N)CC3)nc2-c2cccc(C#N)c2)cc(C)n1 [Example 4.7, 4-Cyano-N-[4-(3-cyanophenyl)-5-(2,6-dimethyl-4-pyridyl)thiazol-2-yl]-4-fluoro-piperidine-1-carboxamide] | 90 nM | 0.05 nM | 125 nM | 1.3 nM | 6 nM | – | 0.8 nM |
| Cc1cc(-c2sc(NC(=O)N3CC[C@@H](C#N)C3)nc2-c2cccc(C#N)c2)cc(C)n1 [Example 4.10, (3R)-3-Cyano-N-[4-(3-cyanophenyl)-5-(2,6-dimethyl-4-pyridyl)thiazol-2-yl]pyrrolidine-1-carboxamide] | 100 nM | 0.38 nM | 157 nM | 2.5 nM | 50 nM | – | 2.9 nM |
| Cc1cc(-c2sc(NC(=O)N3CCN4CCOCC4C3)nc2-c2cccc(C#N)c2)cc(C)n1 (stereo not drawn) [Example 4.11, N-[4-(3-Cyanophenyl)-5-(2,6-dimethyl-4-pyridyl)thiazol-2-yl]-3,4,6,7,9,9a-hexahydro-1H-pyrazino[2,1-c][1,4]oxazine-8-carboxamide] | 220 nM | 1.3 nM | 482 nM | 4.7 nM | 225 nM | – | 3.8 nM |
| Cc1cc(-c2sc(NC(=O)N3CCNC(=O)C3)nc2-c2cccc(C#N)c2)cc(C)n1 [Example 4.13, N-[4-(3-Cyanophenyl)-5-(2,6-dimethyl-4-pyridyl)thiazol-2-yl]-3-oxo-piperazine-1-carboxamide] | 550 nM | 1.5 nM | 195 nM | 1.7 nM | 50 nM | – | 14.1 nM |
| Cc1cc(-c2sc(NC(=O)N3CCN(C)C(=O)C3)nc2-c2cccc(C#N)c2)cc(C)n1 [Example 4.15, N-[4-(3-Cyanophenyl)-5-(2,6-dimethyl-4-pyridyl)thiazol-2-yl]-4-methyl-3-oxo-piperazine-1-carboxamide] | 650 nM | 2.3 nM | 339 nM | 1.4 nM | 91 nM | – | 10.3 nM |
| CC(=O)N1CCN(C(=O)Nc2nc(-c3cccc(C#N)c3)c(-c3cc(C)nc(C)c3)s2)CC1 [Example 4.17, 4-Acetyl-N-[4-(3-cyanophenyl)-5-(2,6-dimethyl-4-pyridyl)thiazol-2-yl]piperazine-1-carboxamide] | 370 nM | 1.9 nM | 293 nM | 2.8 nM | 77 nM | – | 8.5 nM |
| Cc1cc(-c2sc(NC(=O)N3CCN(S(C)(=O)=O)CC3)nc2-c2cccc(C#N)c2)cc(C)n1 [Example 4.18, N-[4-(3-cyanophenyl)-5-(2,6-dimethyl-4-pyridyl)thiazol-2-yl]-4-methylsulfonyl-piperazine-1-carboxamide] | 350 nM | 0.6 nM | 414 nM | 2.3 nM | 94 nM | – | 6.1 nM |
| Cc1cc(-c2sc(NC(=O)N3CCN(S(N)(=O)=O)CC3)nc2-c2cccc(C#N)c2)cc(C)n1 [Example 4.19, N-[4-(3-cyanophenyl)-5-(2,6-dimethyl-4-pyridyl)thiazol-2-yl]-4-sulfamoyl-piperazine-1-carboxamide] | 5520 nM | 0.6 nM | 232 nM | – | 46 nM | 1.3 nM | 5.4 nM |
| Cc1cc(-c2sc(NC(=O)N3CCC4(CC3)NC(=O)NC4=O)nc2-c2cccc(C#N)c2)cc(C)n1 [Example 4.20, N-[4-(3-Cyanophenyl)-5-(2,6-dimethyl-4-pyridyl)thiazol-2-yl]-2,4-dioxo-1,3,8-triazaspiro[4.5]decane-8-carboxamide] | 130 nM | 1.5 nM | 967 nM | 2.6 nM | 161 nM | – | 1.3 nM |
| Cc1cc(-c2sc(NC(=O)N3CC(CO)C3)nc2-c2cccc(C#N)c2)cc(C)n1 [Example 4.25, N-[4-(3-Cyanophenyl)-5-(2,6-dimethyl-4-pyridyl)thiazol-2-yl]-3-(hydroxymethyl)azetidine-1-carboxamide] | 50 nM | 0.12 nM | 120 nM | 1.8 nM | 14 nM | – | 1.1 nM |
| Cc1cc(-c2sc(NC(=O)N3CC(C#N)C3)nc2-c2cccc(C#N)c2)cc(C)n1 [Example 4.26, 3-Cyano-N-[4-(3-cyanophenyl)-5-(2,6-dimethyl-4-pyridyl)thiazol-2-yl]azetidine-1-carboxamide] | 20 nM | 0.05 nM | 130 nM | 0.4 nM | 4 nM | – | 0.4 nM |
| Cc1cc(-c2sc(NC(=O)N3CCC(C(N)=O)CC3)nc2-c2cccc(C#N)c2)cc(C)n1 [Example 4.29, N1-[4-(3-Cyanophenyl)-5-(2,6-dimethyl-4-pyridyl)thiazol-2-yl]piperidine-1,4-dicarboxamide] | 50 nM | 0.13 nM | 112 nM | 1.3 nM | 24 nM | – | 2.1 nM |
| Cc1cc(-c2sc(NC(=O)N3CC(O)C3)nc2-c2cccc(C#N)c2)cc(C)n1 [Example 4.30, N-[4-(3-Cyanophenyl)-5-(2,6-dimethyl-4-pyridyl)thiazol-2-yl]-3-hydroxy-azetidine-1-carboxamide] | 60 nM | 0.41 nM | 106 nM | 0.6 nM | 7 nM | – | 1.3 nM |

More lines, main results first:

| IC50 [2] | Ki [3] | Ki [4] | Ki [5, 7] | Ki [6] | Ki [5] | SMILES | IC50 [1] |
| --- | --- | --- | --- | --- | --- | --- | --- |
| 1180 nM | 0.84 nM | 70 nM | 0.9 nM | 40 nM | – | Cc1cc(-c2sc(NC(=O)N3CCN[C@H](CO)C3)nc2-c2cccc(C#N)c2)cc(Cl)n1 [Example 5.2, (3S)-N-[5-(2-Chloro-6-methyl-4-pyridyl)-4-(3-cyanophenyl)thiazol-2-yl]-3-(hydroxymethyl)piperazine-1-carboxamide] | 20.2 nM |
| 1950 nM | 1.03 nM | 33 nM | – | 111 nM | 5.8 nM | Cc1cc(-c2sc(NC(=O)N3CCN[C@@H](C)C3)nc2-c2cccc(C#N)c2)cc(Cl)n1 [Example 5.4, (3S)-N-[5-(2-Chloro-6-methyl-4-pyridyl)-4-(3-cyanophenyl)thiazol-2-yl]-3-methyl-piperazine-1-carboxamide] | 71.8 nM |
| 2690 nM | 0.94 nM | 70 nM | 2.4 nM | 114 nM | – | Cc1cc(-c2sc(NC(=O)N3CCN[C@H](C)C3)nc2-c2cccc(C#N)c2)cc(Cl)n1 [Example 5.5, (3R)-N-[5-(2-Chloro-6-methyl-4-pyridyl)-4-(3-cyanophenyl)thiazol-2-yl]-3-methyl-piperazine-1-carboxamide] | 30.6 nM |
| 720 nM | 2.13 nM | 31 nM | 4.2 nM | 22 nM | – | Cc1cc(-c2sc(NC(=O)N3C[C@@H]4C[C@H]3CN4)nc2-c2cccc(C#N)c2)cc(Cl)n1 [Example 5.6, (1S,4S)-N-[5-(2-Chloro-6-methyl-4-pyridyl)-4-(3-cyanophenyl)thiazol-2-yl]-2,5-diazabicyclo[2.2.1]heptane-2-carboxamide] | 30.5 nM |
| 980 nM | 0.68 nM | 474 nM | 1.8 nM | 34 nM | – | Cc1cc(-c2sc(NC(=O)N3CCN[C@H](C(N)=O)C3)nc2-c2cccc(C#N)c2)cc(Cl)n1 [Example 5.8, (3S)-N1-[5-(2-Chloro-6-methyl-4-pyridyl)-4-(3-cyanophenyl)thiazol-2-yl]piperazine-1,3-dicarboxamide] | 18.4 nM |
